Patent publication US20230121086A1, “RORgT INHIBITOR, PREPARATION METHOD THEREOF AND USE THEREOF” (SUNSHINE LAKE PHARMA CO., LTD., priority 2020, published 2023)
Marks after values point to notes of the source that are not given here.

How the values were obtained:
[1] = tested on: IMQ-induced mouse psoriasis model; assay: IMQ-induced mouse psoriasis model, ear weight; assay type: in vivo, c57bl/6 mice; conditions: for Effect on the ear weight of mice compared with the model group: P<0.05
rat liver microsomes = assay: Stability in rat liver microsomes; assay type: in vitro ADME; conditions: 0.5 mg protein/mL, 1.5 μM compound, 37° C., NADPH
[2] = Pharmacokinetic evaluation in ICR mice; assay type: in vivo; conditions: mouse, plasma, po; for AUC(0-t) / Cmax / half-life: 5 mg/kg; for bioavailability: p.o. 5 mg/kg vs i.v. 1 mg/kg, read-out: Oral bioavailability (F)
[3] = tested on: inflammatory factor IL-17; assay: LPS-induced mouse blood inflammatory factor IL-17 model; assay type: in vivo, BALB/c mice
[4] = tested on: inflammatory factor IL-17; assay: IMQ-induced mouse psoriasis model, IL-17 in the ear; assay type: in vivo, c57bl/6 mice; conditions: for Inhibition rate (IL-17 in the ear) / IL-17 Concentration (pg/μg protein): 90 mg/kg; for IL-17 Concentration (pg/μg protein): ear homogenate supernatant, model group 29.78, normal group 0.00; for Effect on the secretion of IL-17 in the ear of mice compared with the model group: P<0.05
RORγt = target: T1, RORγt (Homo sapiens, UniProt P51449); assay: Fluorescence resonance energy transfer (FRET) test, inhibitory activity of RORγt; assay type: biochemical; conditions: FRET, B-RORγt LBD / Biotin-SRC1; read-out: IC50
T1 construct: […]
T1 sequence (P51449 269-508 limits assumed): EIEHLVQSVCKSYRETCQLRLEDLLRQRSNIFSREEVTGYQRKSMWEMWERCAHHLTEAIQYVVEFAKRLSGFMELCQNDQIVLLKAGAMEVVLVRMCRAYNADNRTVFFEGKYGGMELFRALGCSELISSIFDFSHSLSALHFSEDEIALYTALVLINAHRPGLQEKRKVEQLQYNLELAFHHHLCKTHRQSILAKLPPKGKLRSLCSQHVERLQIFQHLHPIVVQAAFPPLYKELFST

[5] = Stability in human liver microsomes; assay type: in vitro ADME; conditions: for half-life at 1.5 μM: pH 7.4, 0.5 mg protein/mL, 1.5 μM compound, 37° C., NADPH, read-out: Human Half-life t1/2; for CLint scaled at 1.5 μM: pH 7.4, intrinsic hepatic clearance inferred from microsomal incubation, read-out: Human Clearance rate
[6] = Stability in rat liver microsomes; assay type: in vitro ADME; conditions: rat, liver microsomes, pH 7.4
[7] = 90 mg/kg, oral gavage, 10 days modeling, model group 28.12, normal group 13.03
[8] = Table 7, 30 mg/kg, plasma 4 hours after LPS, model group 174.69
[9] = Table 8, 15 mg/kg, plasma 4 hours after LPS, model group 81.33

**Q.** With `CCS(=O)(=O)c1ccc([C@H](CC#N)NC(=O)c2ccc(N3CC(Oc4ccc(OC(F)(F)F)cc4)C[C@H]3COC(F)F)cc2)cc1` (stereo in doubt) [Example 64, N-((S)-2-cyano-1-(4-(ethylsulfonyl)phenyl)ethyl)-4-((2S,4S)-2-((difluoromethoxy)methyl)-4-(4-(trifluoromethoxy)phenoxy)pyrrolidin-1-yl)benzamide] as the compound, how does the “Inhibition rate % (ear weight)” value ([1]; 90 mg/kg, oral gavage) read?
**A.** Its value is 22%.

**Q.** What about the “Average ear weight (mg)” value [1, 7] of the same compound?
**A.** The value was 24.84* mg.

**Q.** What about the “Effect on the ear weight of mice compared with the model group” value [1] of the same compound?
**A.** Its value is “significantly reduce”.

**Q.** And the “Rat Half-life t1/2 (min)” value (rat liver microsomes)?
**A.** Its value is “Not metabolized”.

**Q.** And the AUC(0-t) [2]?
**A.** Its AUC(0-t) is 47.2 µM·h.

**Q.** What about the Cmax [2] of the same compound?
**A.** The Cmax was 3.33 µM.

**Q.** And the half-life [2]?
**A.** The half-life was 13.2 h.

**Q.** And the bioavailability [2]?
**A.** Its bioavailability is 91%.

**Q.** What about the “Effect on LPS-induced mouse blood inflammatory factor IL-17” value [3] of the same compound?
**A.** The value was “significantly reduce”.

**Q.** And the Inhibition rate % ([3]; Table 7, 30 mg/kg)?
**A.** Its Inhibition rate % is 65%.

**Q.** What about the “IL-17 (pg/ml)” value [3, 8] of the same compound?
**A.** The value was 58.48 ** pg/ml.

**Q.** And the “Inhibition rate (IL-17 in the ear)” value [4]?
**A.** The value was 72.47%.

**Q.** And the “IL-17 Concentration (pg/μg protein)” value [4]?
**A.** Its value is 8.20 ** pg/μg protein.

**Q.** What about the “Effect on the secretion of IL-17 in the ear of mice compared with the model group” value [4] of the same compound?
**A.** Its value is “significantly reduce”.

**Q.** What about the IC50 (RORγt) of the same compound?
**A.** The IC50 was 11 nM.

**Q.** What does the source list for `CCS(=O)(=O)c1ccc([C@H](CC#N)NC(=O)c2ccc(N3CC(Oc4ccc(C(F)(F)F)cn4)C[C@H]3COC(F)F)cc2)cc1` (stereo in doubt) [Example 65, N-((S)-2-cyano-1-(4-(ethylsulfonyl)phenyl)ethyl)-4-((2S,4S)-2-((difluoromethoxy)methyl)-4-((5-(trifluoromethyl)pyridine-2-yl)oxy)pyrrolidin-1-yl)benzamide]?
**A.** half-life at 1.5 μM [5]: 1.34 h; CLint scaled at 1.5 μM [5]: 21.6 mL/min/kg; Rat Half-life t1/2 (min) (rat liver microsomes): Not metabolized; AUC(0-t) [2]: 78 µM·h; Cmax [2]: 7 µM; half-life [2]: 7.9 h; bioavailability [2]: 82%; Effect on LPS-induced mouse blood inflammatory factor IL-17 [3]: significantly reduce; Inhibition rate % ([3]; Table 7, 30 mg/kg): 63%; IL-17 (pg/ml) [3, 8]: 61.71 ** pg/ml

**Q.** Which “Inhibition rate % (ear weight)” value ([1]; 90 mg/kg, oral gavage) does the source give for `CCS(=O)(=O)c1ccc([C@H](CC#N)NC(=O)c2ccc(N3C[C@@H](Oc4ccc(OC(F)F)cc4)C[C@H]3COC(F)F)cc2)cc1` [Example 22, N-((S)-2-cyano-1-(4-(ethylsulfonyl)phenyl)ethyl)-4-((2S,4S)-2-((difluoromethoxy)methyl)-4-(4-(difluoromethoxy)phenoxy)pyrrolidin-1-yl)benzamide] here?
**A.** Its value is 2%.

**Q.** And the “Average ear weight” value [1, 7]?
**A.** The value was 28.12 mg.

**Q.** And the half-life at 1.5 μM [5]?
**A.** Its half-life at 1.5 μM is 3.98 h.

**Q.** And the CLint scaled at 1.5 μM [5]?
**A.** The CLint scaled at 1.5 μM was 7.3 mL/min/kg.

**Q.** What about the “Rat Half-life t1/2 (min)” value (rat liver microsomes) of the same compound?
**A.** The value was “Not metabolized”.

**Q.** What about the AUC(0-t) [2] of the same compound?
**A.** Its AUC(0-t) is 37 µM·h.

**Q.** What about the Cmax [2] of the same compound?
**A.** Its Cmax is 4.8 µM.

**Q.** And the half-life [2]?
**A.** The half-life was 3.6 h.

**Q.** What about the bioavailability [2] of the same compound?
**A.** Its bioavailability is 80%.

**Q.** And the “Effect on LPS-induced mouse blood inflammatory factor IL-17” value [3]?
**A.** Its value is “a certain tendency to inhibit”.

**Q.** And the Inhibition rate % ([3]; Table 8, 15 mg/kg)?
**A.** Its Inhibition rate % is 10.55%.

**Q.** What about the “IL-17” value [3, 9] of the same compound?
**A.** The value was 72.12 pg/mL.

**Q.** And the “Inhibition rate (IL-17 in the ear)” value [4]?
**A.** Its value is 40.08%.

**Q.** What about the “IL-17 Concentration (pg/μg protein)” value [4] of the same compound?
**A.** Its value is 17.85 * pg/μg protein.

**Q.** What about the “Effect on the secretion of IL-17 in the ear of mice compared with the model group” value [4] of the same compound?
**A.** Its value is “significantly reduce”.

**Q.** What about the IC50 (RORγt) of the same compound?
**A.** Its IC50 is 9 nM.

**Q.** For `CCS(=O)(=O)c1ccc([C@H](CC#N)NC(=O)c2ccc(N3C[C@@H](Oc4ccc(C(F)(F)F)cc4)C[C@H]3COC(F)F)cc2)cc1` [Example 47, N—((S)-2-cyano-1-(4-(ethylsulfonyl)phenyl)ethyl)-4-((2S,4S)-2-((difluoromethoxy)methyl)-4-(4-(trifluoromethyl)phenoxy)pyrrolidin-1-yl)benzamide], which “Inhibition rate % (ear weight)” value ([1]; 90 mg/kg, oral gavage) is on record?
**A.** Its value is 19%.

**Q.** And the “Average ear weight (mg)” value [1, 7]?
**A.** Its value is 25.20* mg.

**Q.** And the “Effect on the ear weight of mice compared with the model group” value [1]?
**A.** Its value is “significantly reduce”.

**Q.** What about the half-life at 1.5 μM [5] of the same compound?
**A.** The half-life at 1.5 μM was 3.5 h.

**Q.** What about the CLint scaled at 1.5 μM [5] of the same compound?
**A.** Its CLint scaled at 1.5 μM is 8.3 mL/min/kg.

**Q.** And the half-life at 1.5 μM ([6]; 0.5 mg protein/mL, 1.5 μM compound, 37° C., NADPH, read-out: Rat Half-life t1/2)?
**A.** Its half-life at 1.5 μM is 22.4 h.

**Q.** And the CLint scaled at 1.5 μM ([6]; intrinsic hepatic clearance inferred from microsomal incubation, read-out: Rat Clearance rate)?
**A.** Its CLint scaled at 1.5 μM is 1.9 mL/min/kg.

**Q.** What about the AUC(0-t) [2] of the same compound?
**A.** Its AUC(0-t) is 23.5 µM·h.

**Q.** What about the Cmax [2] of the same compound?
**A.** Its Cmax is 2.4 µM.

**Q.** What about the half-life [2] of the same compound?
**A.** Its half-life is 11.1 h.

**Q.** And the bioavailability [2]?
**A.** The bioavailability was 66%.

**Q.** What about the “Effect on LPS-induced mouse blood inflammatory factor IL-17” value [3] of the same compound?
**A.** Its value is “significantly reduce”.

**Q.** And the Inhibition rate % ([3]; Table 6, 15 mg/kg)?
**A.** The Inhibition rate % was 25.22%.

**Q.** What about the “IL-17 (pg/ml)” value ([3]; Table 6, 15 mg/kg, plasma 4 hours after LPS, model group 141.35) of the same compound?
**A.** Its value is 104.98 * pg/ml.

**Q.** And the Inhibition rate % ([3]; Table 7, 30 mg/kg)?
**A.** The Inhibition rate % was 51%.

**Q.** What about the “IL-17 (pg/ml)” value [3, 8] of the same compound?
**A.** The value was 83.18 * pg/ml.

**Q.** And the Inhibition rate % ([3]; Table 8, 15 mg/kg)?
**A.** The Inhibition rate % was 28.21%.

**Q.** And the “IL-17 (pg/ml)” value [3, 9]?
**A.** The value was 56.69 ** pg/ml.

**Q.** And the “Inhibition rate (IL-17 in the ear)” value [4]?
**A.** Its value is 55.38%.

**Q.** What about the “IL-17 Concentration (pg/μg protein)” value [4] of the same compound?
**A.** The value was 13.29 ** pg/μg protein.

**Q.** What about the “Effect on the secretion of IL-17 in the ear of mice compared with the model group” value [4] of the same compound?
**A.** The value was “significantly reduce”.

**Q.** And the IC50 (RORγt)?
**A.** The IC50 was 10 nM.
